Converted amounts (≈) assume the structure as drawn. Counter-ions that a name gives are not always drawn. Like-named read-outs stand apart in the source and are kept apart here. Each block holds one compound with its values, some of them ahead of it.
Experiments:
[1] = system: Mycoplasma hyopneumoniae ST-11 (standard strain); experiment: Anti-mycoplasma activity in vitro (MIC, broth dilution), strain ST-11; type: cell-based; settings: Mesomycoplasma hyopneumoniae, Mh ST-11; read-out: MIC
Experimental: (§1) (1) Anti-mycoplasma activity test in vitro
(§2) MIC values of each of Tropolones were measured on the following strains according to the following method.
(b) Mycoplasma hyopneumoniae
Strain: ST-11 (standard strain)
Medium: 850 ml of Hanks' solution supplemented with 0.5% lactoalbumin, 50 ml of 25% yeast, 100 ml of equine serum and 4-6 ml of 0.5% phenol red (pH 7.4-7.6)
(§3) Method: Broth dilution method
Inoculum: Culture which is incubated for 3-4 days and diluted 10 times with the broth if color of the broth becomes yellow then. If it needs over 4 days until color of the broth becomes yellow, it is further subcultured. This is diluted 10 times with the broth to give inoculum.
Assay is done in the same manner as in the above (a).

[2] = system: Mycoplasma gallisepticum S6 (standard strain); experiment: Anti-mycoplasma activity in vitro (MIC, broth dilution), strain S6; type: cell-based; settings: Mg S6, 37° C., 7 days
Experimental: as §1, §2
(§4) (a) Mycoplasma gallisepticum
(§5) Medium: Chick PPLO broth supplemented with 20% equine serum (Eiken Kagaku Co., Ltd.)
as §3
(§6) Inoculum: Culture incubated at 37° C. for 24-48 hr which is diluted with broth to 10^6 CCU/ml immediately before the use.
(§7) To 1.6 ml of the broth is added 0.2 ml of an agent which has been subjected to 2-fold dilution and then added 0.2 ml of inoculum, which is incubated at 37° C. for 7 days.

[3] = system: Mycoplasma gallisepticum MR-1 (wild strain, tylosin-resistant); experiment: Anti-mycoplasma activity in vitro (MIC, broth dilution), strain MR-1; type: cell-based; settings: Mg MR-1, 37° C., 7 days
Experimental: as §1, §2, §4
(§8) MR-1 (wild strain, tylosin-resistant)
as §5, §3, §6, §7

[4] = system: Mycoplasma gallisepticum T-7-T (wild strain, tylosin-resistant); experiment: Anti-mycoplasma activity in vitro (MIC, broth dilution), strain T-7-T; type: cell-based; settings: Mycoplasmoides gallisepticum, 168 h, Mg T-7-T, 37° C., 7 days; read-out: MIC
Experimental: as §1, §2, §4
(§9) T-7-T (wild strain, tylosin-resistant)
as §5, §3, §6, §7

[5] = system: Mycoplasma gallisepticum S6 (standard strain); experiment: Mycoplasma gallisepticum air-sac infection method in chicken, strain S6; type: in vivo, Mycoplasma gallisepticum; SPF chicken (white leghorn); settings: 200 mg/kg × once oral, 20 mg/ml sol. c; for Index of Isolation: inoculum 6.3 × 10^4, trachea ND, range 0-6.0
Experimental: (§10) (2) Test of Effectiveness Mycoplasma gallisepticum air-sac infection method
(§11) Inoculation: To the right air-sac of 9 days old SPF chicken (a white leghorn) which has abstained from water and feed one day before is inoculated 0.20-0.25 ml/chicken of fresh mycoplasma culture incubated for 24-48 hr and diluted with broth (usually 100 times). The concentration in Table 2 is shown in a unit of mg/ml.
(§12) Medium: Chick PPLO broth supplemented with 15% equine serum (Eiken Kagaku Co., Ltd.)
(§13) Administration: A compound of this invention dissolved or suspended in the following solution is orally and forcibly administered once by a cannula immediately after the infection.
(§14) Anatomization and Isolation of Microorganism: The chickens are anatomized 5 days after the infection, and the right and left air sacs are investigated whether they are attacked with a disease or not. The change caused by the disease is represented in four degrees; -: no change, +: slight, ++: medium and +++: serious. Microorganism is isolated from the right and left air-sacs and the trachea by using a sterilized applicator.
(§15) Judgement: Judgement is done through an index of an air-sac disease and an index of a microorganism-isolation.
(§16) Index of an air-sac-disease: First, indexes in the right and left air-sacs are separately calculated according to the following formula;
(§17) {degree of disease (0-3)×chickens}/anatomized chickens
(§18) and the index is calculated by the following formula;
(§19) (index of right air-sac)×1+(index of left air-sac)×2
(§20) Index of a microorganism isolation:
(§21) P: chickens from the right air-sac of which microorganism is isolated,
(§22) Q: chickens from the trachea of which microorganism is isolated,
(§23) R: chickens from the left air-sac of which microorganism is isolated, and
(§24) S: chickens investigated.

[6] = system: Mycoplasma gallisepticum MR-1 (wild strain, tylosin-resistant); experiment: Mycoplasma gallisepticum air-sac infection method in chicken, strain MR-1;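 for Index of Isolation: index = (P×1 + Q×2 + R×3)/S with range 0 to 6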; type: in vivo, Mycoplasma gallisepticum; SPF chicken (white leghorn); settings: 100 mg/kg × once oral, 10 mg/ml sol. b
Experimental: as §10, §8, §11, §12, §13, §14, §15, §16, §17, §18, §19, §20, §21, §22, §23, §24

[7] = system: Mycoplasma gallisepticum T-7-T (wild strain, tylosin-resistant); experiment: Mycoplasma gallisepticum air-sac infection method in chicken, strain T-7-T; type: in vivo, Mycoplasma gallisepticum; SPF chicken (white leghorn);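 for Index of Isolation: index = (P×1 + Q×2 + R×3)/S with range 0 to 6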
Experimental: as §10, §9, §11, §12, §13, §14, §15, §16, §17, §18, §19, §20, §21, §22, §23, §24

[8] = Mycoplasmoides gallisepticum, 168 h, read-out: MIC
[9] = inoculum 6.3 × 10^4, calcium salt
[10] = 100 mg/kg × once oral, 10 mg/ml sol. b, inoculum 10^2
[11] = 200 mg/kg × once oral, 20 mg/ml DW, inoculum 1.9 × 10^5
[12] = 200 mg/kg × once oral, 20 mg/ml DW, inoculum 1.9 × 10^5, range 0-6.0
[13] = 200 mg/kg × once oral, 20 mg/ml DW, inoculum 1.9 × 10^5, range 0-9.0

Structure (SMILES): O=c1cccccc1O [Compound 5, Tropolone calcium salt]
MIC ([2]; calcium salt): 3.13 µg/mL | MIC ([3]; calcium salt): 1.56 µg/mL | Change of air-sac, left: + (chickens) ([5]; inoculum 6.3 × 10^4): 0 | Change of air-sac, left: ++ (chickens) ([5]; inoculum 6.3 × 10^4): 0 | Change of air-sac, left: +++ (chickens) ([5]; inoculum 6.3 × 10^4): 0 | Change of air-sac, left: - (chickens) ([5]; inoculum 6.3 × 10^4): 5 | Change of air-sac, right: ++ (chickens) ([5]; inoculum 6.3 × 10^4): 0 | Change of air-sac, right: +++ (chickens) ([5]; inoculum 6.3 × 10^4): 0 | Isolation, L (left air-sac) ([5]; inoculum 6.3 × 10^4): 0 | Isolation, R (right air-sac) ([5]; inoculum 6.3 × 10^4): 1 | Mycoplasma Isolated Chickens ([5]; inoculum 6.3 × 10^4): 1 | Change of air-sac, right: + (chickens) [5, 9]: 0 | Change of air-sac, right: - (chickens) [5, 9]: 5 | Index of Disease ([5]; inoculum 6.3 × 10^4, range 0-9.0, calcium salt): 0 | Index of Isolation [5]: 0.2

Structure (SMILES): CC(C)(C)OC(=O)COc1cccccc1=O [Compound 18, O-(tert-Butyloxycarbonylmethyl)tropolone]
MIC [1]: > 25 µg/mL | MIC [2, 8]: > 25 µg/mL

Structure (SMILES): Cc1ccc(S(=O)(=O)Oc2cccccc2=O)cc1 [Compound 16, O-(p-Toluensulfonyl)tropolone]
MIC [1]: 6.25 µg/mL (≈ 22.6 µM) | MIC [2, 8]: 3.13 µg/mL (≈ 11.3 µM)

Structure (SMILES): O=C(COc1cccccc1=O)c1ccccc1 [Compound 21, O-(Benzoylmethyl)tropolone]
MIC [1]: 0.2 µg/mL (≈ 0.832 µM) | MIC [2, 8]: 0.78 µg/mL (≈ 3.25 µM)

Structure (SMILES): CC[C@H]1OC(=O)C[C@@H](O)[C@H](C)[C@@H](O[C@@H]2O[C@H](C)[C@@H](O[C@H]3C[C@@](C)(O)[C@@H](O)[C@H](C)O3)[C@H](N(C)C)[C@H]2O)[C@@H](CC=O)C[C@@H](C)C(=O)/C=C/C(C)=C/[C@@H]1CO[C@@H]1O[C@H](C)[C@@H](O)[C@@H](OC)[C@H]1OC [tylosin, reference compound]
Change of air-sac, left: + (chickens) ([6]; inoculum 0.3 × 10^5): 1 | Change of air-sac, left: ++ (chickens) ([6]; inoculum 0.3 × 10^5): 0 | Change of air-sac, left: +++ (chickens) ([6]; inoculum 0.3 × 10^5): 0 | Change of air-sac, left: - (chickens) ([6]; inoculum 0.3 × 10^5): 5 | Change of air-sac, right: + (chickens) ([6]; inoculum 0.3 × 10^5): 0 | Change of air-sac, right: ++ (chickens) ([6]; inoculum 0.3 × 10^5): 3 | Change of air-sac, right: +++ (chickens) ([6]; inoculum 0.3 × 10^5): 3 | Change of air-sac, right: - (chickens) ([6]; inoculum 0.3 × 10^5): 0 | Isolation, L (left air-sac) ([6]; inoculum 0.3 × 10^5): 6 | Isolation, R (right air-sac) ([6]; inoculum 0.3 × 10^5): 6 | Isolation, T (trachea) ([6]; inoculum 0.3 × 10^5): 6 | Mycoplasma Isolated Chickens ([6]; inoculum 0.3 × 10^5): 6 | Index of Isolation ([6]; inoculum 0.3 × 10^5, range 0-6.0): 6.0 | Index of Disease ([6]; inoculum 0.3 × 10^5, range 0-9.0): 2.8 | Change of air-sac, left: + (chickens) [7, 10]: 0 | Change of air-sac, left: ++ (chickens) [7, 10]: 2 | Change of air-sac, left: +++ (chickens) [7, 10]: 0 | Change of air-sac, left: - (chickens) [7, 10]: 6 | Change of air-sac, right: + (chickens) [7, 10]: 1 | Change of air-sac, right: ++ (chickens) [7, 10]: 5 | Change of air-sac, right: +++ (chickens) [7, 10]: 1 | Change of air-sac, right: - (chickens) [7, 10]: 1 | Isolation, L (left air-sac) [7, 10]: 8 | Isolation, R (right air-sac) [7, 10]: 7 | Isolation, T (trachea) [7, 10]: 8 | Mycoplasma Isolated Chickens [7, 10]: 8 | Index of Isolation ([7]; 100 mg/kg × once oral, 10 mg/ml sol. b, inoculum 10^2, range 0-6.0): 5.60 | Index of Disease ([7]; 100 mg/kg × once oral, 10 mg/ml sol. b, inoculum 10^2, range 0-9.0): 2.80 | Change of air-sac, left: + (chickens) [7, 11]: 0 | Change of air-sac, left: ++ (chickens) [7, 11]: 0 | Change of air-sac, left: +++ (chickens) [7, 11]: 0 | Change of air-sac, left: - (chickens) [7, 11]: 5 | Change of air-sac, right: + (chickens) [7, 11]: 0 | Change of air-sac, right: ++ (chickens) [7, 11]: 1 | Change of air-sac, right: +++ (chickens) [7, 11]: 4 | Change of air-sac, right: - (chickens) [7, 11]: 0 | Isolation, L (left air-sac) [7, 11]: 4 | Isolation, R (right air-sac) [7, 11]: 5 | Isolation, T (trachea) [7, 11]: 5 | Mycoplasma Isolated Chickens [7, 11]: 5 | Index of Isolation [7, 12]: 5.4 | Index of Disease [7, 13]: 2.8

Structure (SMILES): O=c1cccccc1O [Compound 9, Tropolone ethanolamine salt]
MIC [2]: 3.13 µg/mL | MIC [3]: 3.13 µg/mL | Change of air-sac, left: + (chickens) ([5]; inoculum 6.3 × 10^4): 0 | Change of air-sac, left: ++ (chickens) ([5]; inoculum 6.3 × 10^4): 0 | Change of air-sac, left: +++ (chickens) ([5]; inoculum 6.3 × 10^4): 0 | Change of air-sac, left: - (chickens) ([5]; inoculum 6.3 × 10^4): 5 | Change of air-sac, right: + (chickens) ([5]; inoculum 6.3 × 10^4): 1 | Change of air-sac, right: ++ (chickens) ([5]; inoculum 6.3 × 10^4): 0 | Change of air-sac, right: +++ (chickens) ([5]; inoculum 6.3 × 10^4): 0 | Change of air-sac, right: - (chickens) ([5]; inoculum 6.3 × 10^4): 4 | Isolation, L (left air-sac) ([5]; inoculum 6.3 × 10^4): 0 | Isolation, R (right air-sac) ([5]; inoculum 6.3 × 10^4): 1 | Mycoplasma Isolated Chickens ([5]; inoculum 6.3 × 10^4): 1 | Index of Disease ([5]; inoculum 6.3 × 10^4, range 0-9.0): 0.2 | Index of Isolation [5]: 0.2

Structure (SMILES): C[C@H]1c2cccc(O)c2C(=O)C2=C(O)[C@]3(O)C(=O)C(C(N)=O)=C(O)[C@@H](N(C)C)[C@@H]3[C@@H](O)[C@@H]21 [doxycycline, reference compound]
Change of air-sac, left: + (chickens) [7, 11]: 2 | Change of air-sac, left: ++ (chickens) [7, 11]: 1 | Change of air-sac, left: +++ (chickens) [7, 11]: 0 | Change of air-sac, left: - (chickens) [7, 11]: 2 | Change of air-sac, right: + (chickens) [7, 11]: 0 | Change of air-sac, right: ++ (chickens) [7, 11]: 4 | Change of air-sac, right: +++ (chickens) [7, 11]: 0 | Change of air-sac, right: - (chickens) [7, 11]: 1 | Isolation, L (left air-sac) [7, 11]: 5 | Isolation, R (right air-sac) [7, 11]: 5 | Isolation, T (trachea) [7, 11]: 5 | Mycoplasma Isolated Chickens [7, 11]: 5 | Index of Isolation [7, 12]: 6.0 | Index of Disease [7, 13]: 3.2

Results, then the compound that gave them:

MIC [1]: 12.5 µg/mL (≈ 90.5 µM) | MIC [2, 8]: 12.5 µg/mL (≈ 90.5 µM) | MIC [3, 8]: 12.5 µg/mL (≈ 90.5 µM) | MIC [4]: 12.5 µg/mL (≈ 90.5 µM)
Structure (SMILES): O=c1c(O)ccccc1O [Compound 27, 7-Hydroxytropolone]

MIC [1]: 25 µg/mL (≈ 154 µM) | MIC [2, 8]: > 25 µg/mL
Structure (SMILES): C=CCOc1cccccc1=O [Compound 22, O-Allyltropolone]

MIC [1]: > 25 µg/mL | MIC [2, 8]: > 25 µg/mL
Structure (SMILES): CC(Oc1cccccc1=O)C(=O)O (stereo not shown) [Compound 17, O-(1-Carboxyethyl)tropolone]

MIC [1]: > 25 µg/mL | MIC [2, 8]: > 25 µg/mL | MIC [4]: > 25 µg/mL
Structure (SMILES): CCOC(=O)C(C)Oc1cccccc1=O (stereo not shown) [Compound 20, O-(1-Ethoxycarbonylethyl)tropolone]

Source: patent publication US4950686A, “Anti-mycoplasma agent” (Shionogi & Co., Ltd., priority 1986, dated 1990)
